{"source": "EPA's ToxValDB 9.5", "key": {"Mus musculus": {"tested_on": "Mus musculus", "details": "for LC50: acute"}, "Rattus norvegicus [1]": {"tested_on": "Rattus norvegicus", "details": "for LC50: acute"}, "Rattus norvegicus [2]": {"tested_on": "Rattus norvegicus", "details": "for LOEL / NOEL: Hershberger, duration: 10 days, gavage"}, "Rattus norvegicus [3]": {"tested_on": "Rattus norvegicus", "details": "subchronic, oral"}, "Rattus norvegicus [4]": {"tested_on": "Rattus norvegicus"}, "[5]": {"details": "chronic, duration: 14 weeks, inhalation, B6C3F1"}, "[6]": {"details": "oral, Sprague-Dawley, active + Negative + Antiandrogenic + anti-androgenic + negative"}, "[7]": {"details": "uterotrophic, duration: 3 days, injection, subcutaneous, Active"}, "[8]": {"details": "uterotrophic, duration: 36 days, injection, subcutaneous, Active"}, "[9]": {"details": "short-term, duration: 3 days, injection, subcutaneous, F, Crj:CD, uterus: uterine dry weight (absolute) + uterus: uterine dry weight (relative) + uterus: uterine wet weight (absolute) + uterus: uterine wet …"}, "[10]": {"details": "short-term, duration: 28 days, oral, gavage, F, Crl:CD(SD), A/G ratio + phospholipid + triglyceride"}, "[11]": {"details": "short-term, duration: 28 days, oral, gavage, F, Crl:CD(SD), cholinesterase + inorganic phosphorus + kidney: abnormal kidney histopathological changes"}, "[12]": {"details": "short-term, duration: 28 days, oral, gavage, F, Crl:CD(SD), uterus: uterine dry weight (absolute) + uterus: uterine dry weight (relative) + uterus: uterine wet weight (absolute) + uterus: uterine wet …"}, "[13]": {"details": "short-term, duration: 28 days, oral, gavage, M, Crl:CD(SD), alanine aminotransferase + body weight + brain: brain weight + gamma-glutamyl transpeptidase + heart: heart weight + hematocrit + kidney: …"}, "[14]": {"details": "short-term, duration: 28 days, oral, gavage, M, Crl:CD(SD), heart: heart weight"}, "[15]": {"details": "oral, Wistar, active + Negative + Antiandrogenic + anti-androgenic"}}, "note": "Values joined by “and” are separate entries in the source; they are usually repeats but may differ in a detail not shown here. Equal values may be shown once."}
{"smiles": "C=CC=C", "note": "[1,3-Butadiene]", "values": [{"measurement": "LOAEL", "setting": "Mus musculus; [5]", "result": 5530, "unit": "mg/m3"}, {"measurement": "NOAEL", "setting": "Mus musculus; [5]", "result": 2770, "unit": "mg/m3"}, {"measurement": "NOAEL", "setting": "Mus musculus; reproduction developmental, duration: 5 days, inhalation, M, B6C3F1", "result": 442, "unit": "mg/m3"}, {"measurement": "NOAEL", "setting": "Mus musculus; reproduction developmental, duration: 10 days, inhalation, CD1, generation: F1", "result": 88.5, "unit": "mg/m3"}, {"measurement": "LOAEL", "setting": "Rattus norvegicus [1]; repeat dose other, inhalation, Sprague-Dawley", "result": "> 17700 mg/m3 and 17700 mg/m3"}, {"measurement": "NOAEL", "setting": "Rattus norvegicus [1]; reproduction developmental, duration: 10 days, inhalation, Sprague-Dawley, generation: F1", "result": 2210, "unit": "mg/m3"}, {"measurement": "LOAEL", "setting": "Rattus norvegicus [1]; reproduction developmental, inhalation, Sprague-Dawley", "result": 3320, "unit": "mg/m3"}, {"measurement": "NOAEL", "setting": "Rattus norvegicus [1]; reproduction developmental, inhalation, Sprague-Dawley, generation: F0", "result": 664, "unit": "mg/m3"}]}
{"smiles": "N#Cc1c(Cl)cccc1Cl", "note": "[2,6-Dichlorobenzonitrile]", "values": [{"measurement": "LOEL", "setting": "Rattus norvegicus [2]; [6]", "result": 150, "unit": "mg/kg-day"}, {"measurement": "NOEL", "setting": "Rattus norvegicus [2]; [6]", "result": 60, "unit": "mg/kg-day"}]}
{"smiles": "COc1ccc(C(=O)c2ccccc2)c(O)c1", "note": "[2-Hydroxy-4-methoxybenzophenone]", "values": [{"measurement": "NOEL", "setting": "Rattus norvegicus [3]; diet, F, Fischer 344, Body Weight Changes: decrease + Food Consumption: decrease + Hematology: Hgb decrease, Plt increase + Blood Chemistry: gamma-GTP increase, …", "result": "< 196", "unit": "mg/kg-day"}, {"measurement": "NOEL", "setting": "Rattus norvegicus [3]; diet, M/F, Fischer 344, Body Weight Changes: decrease + Food Consumption: decrease + Hematology: Hgb decrease, Plt increase + Blood Chemistry: gamma-GTP increase, …", "result": "< 300", "unit": "mg/kg-day"}, {"measurement": "LEL", "setting": "Rattus norvegicus [2]; uterotrophic, duration: 4 days, oral, diet, Active", "result": 1520, "unit": "mg/kg-day"}]}
{"smiles": "CC(C)(C)c1ccc(O)cc1", "note": "[4-(1,1-Dimethylethyl)phenol]", "values": [{"measurement": "LOAEL", "setting": "Rattus norvegicus [1]; short-term, duration: 14 days, oral, gavage, Crj:CD", "result": 250, "unit": "mg/kg-day"}, {"measurement": "LEL", "setting": "Rattus norvegicus [2]; [7]", "result": "100 mg/kg-day and 99.2 mg/kg-day"}]}
{"smiles": "C[C@]12CCC(=O)C=C1CC[C@@H]1[C@@H]2CC[C@]2(C)C(=O)CC[C@@H]12", "note": "[4-Androstene-3,17-dione]", "values": [{"measurement": "LEL", "setting": "Rattus norvegicus [2]; [7]", "result": 5, "unit": "mg/day"}, {"measurement": "LEL", "setting": "Rattus norvegicus [2]; uterotrophic, duration: 7 days, injection, subcutaneous, Active", "result": 5, "unit": "mg/kg-day"}, {"measurement": "LEL", "setting": "Rattus norvegicus [2]; uterotrophic, duration: 14 days, injection, subcutaneous, Active", "result": 2, "unit": "mg/day"}, {"measurement": "LEL", "setting": "Rattus norvegicus [2]; [8]", "result": 1, "unit": "mg/kg-day"}]}
{"smiles": "CCCCCCCCCCCCc1ccc(O)cc1", "note": "[4-Dodecylphenol]", "values": [{"measurement": "LEL", "setting": "Rattus norvegicus [2]; [7]", "result": "40 mg/kg-day and 39.7 mg/kg-day"}]}
{"smiles": "Cc1c(O)ccc2c1CC[C@@H]1[C@@H]2CC[C@]2(C)[C@@H](O)CC[C@@H]12", "note": "[4-Methylestradiol]", "values": [{"measurement": "LEL", "setting": "Rattus norvegicus [2]; [7]", "result": 0.005, "unit": "mg/day"}]}
{"smiles": "C#C[C@@]1(OC(=O)CC)C[C@@H]2CC[C@@H]3[C@H](CC[C@@]4(C)[C@H]3CC[C@]4(C#C)OC(=O)CC)[C@@]2(C)C1", "note": "[Anordrin]", "values": [{"measurement": "LEL", "setting": "Rattus norvegicus [2]; uterotrophic, duration: 3 days, oral, Active", "result": 0.0025, "unit": "mg/day"}]}
{"smiles": "Oc1ccc(C2(c3ccc(O)cc3)CCCCC2)cc1", "note": "[Bisphenol Z]", "values": [{"measurement": "NOEL", "setting": "Rattus norvegicus [3]; gavage, M, Sprague-Dawley, Clinical Observation: Diarrhea Soft feces + Body Weight Changes: decrease, R + Food Consumption: decrease + Urinalysis: Urine volume …", "result": 20, "unit": "mg/kg-day"}, {"measurement": "LOEL", "setting": "Rattus norvegicus [4]; [9]", "result": 30, "unit": "mg/kg-day"}, {"measurement": "NOEL", "setting": "Rattus norvegicus [4]; [9]", "result": 6, "unit": "mg/kg-day"}, {"measurement": "LOEL", "setting": "Rattus norvegicus [4]; [10]", "result": 100, "unit": "mg/kg-day"}, {"measurement": "NOEL", "setting": "Rattus norvegicus [4]; [10]", "result": 30, "unit": "mg/kg-day"}, {"measurement": "LOEL", "setting": "Rattus norvegicus [4]; [11]", "result": 300, "unit": "mg/kg-day"}, {"measurement": "NOEL", "setting": "Rattus norvegicus [4]; [11]", "result": 100, "unit": "mg/kg-day"}, {"measurement": "LOEL", "setting": "Rattus norvegicus [4]; [12]", "result": 30, "unit": "mg/kg-day"}, {"measurement": "NOEL", "setting": "Rattus norvegicus [4]; [12]", "result": 6, "unit": "mg/kg-day"}, {"measurement": "LOEL", "setting": "Rattus norvegicus [4]; [13]", "result": 300, "unit": "mg/kg-day"}, {"measurement": "NOEL", "setting": "Rattus norvegicus [4]; [13]", "result": 100, "unit": "mg/kg-day"}, {"measurement": "LOEL", "setting": "Rattus norvegicus [4]; [14]", "result": 100, "unit": "mg/kg-day"}, {"measurement": "NOEL", "setting": "Rattus norvegicus [4]; [14]", "result": 30, "unit": "mg/kg-day"}, {"measurement": "LOEL", "setting": "Rattus norvegicus [4]; short-term, duration: 28 days, oral, gavage, M, Crl:CD(SD), thymus: serum T4", "result": 30, "unit": "mg/kg-day"}]}
{"smiles": "CCBr", "note": "[Bromoethane]", "values": [{"measurement": "LC50", "setting": "Mus musculus; inhalation, B6C3F1", "result": 12100, "unit": "mg/m3"}, {"measurement": "LC50", "setting": "Mus musculus; inhalation, CF1", "result": 72200, "unit": "mg/m3"}, {"measurement": "NOAEL", "setting": "Mus musculus; short-term, duration: 14 days, inhalation, B6C3F1", "result": 2230, "unit": "mg/m3"}, {"measurement": "LC50", "setting": "Rattus norvegicus [1]; inhalation, Fischer 344", "result": 20900, "unit": "mg/m3"}, {"measurement": "LC50", "setting": "Rattus norvegicus [1]; inhalation, Sprague-Dawley", "result": 120000, "unit": "mg/m3"}, {"measurement": "NOAEL", "setting": "Rattus norvegicus [1]; chronic, duration: 14 weeks, inhalation, Fischer 344", "result": 1780, "unit": "mg/m3"}, {"measurement": "NOAEL", "setting": "Rattus norvegicus [1]; short-term, duration: 14 days, inhalation, Fischer 344", "result": 2230, "unit": "mg/m3"}]}
{"smiles": "[Cl-].[Cl-].[Co+2]", "note": "[Cobalt chloride]", "values": [{"measurement": "NOAEL", "setting": "Mus musculus; developmental, duration: 5 days, oral, gavage, ICR", "result": 180, "unit": "mg/kg-day"}, {"measurement": "LOAEL", "setting": "Rattus norvegicus [1]; chronic, duration: 150 days, oral, gavage", "result": 4, "unit": "mg/kg-day"}]}
{"smiles": "C[C@]12CC[C@H](O)CC1=CC[C@@H]1[C@@H]2CC[C@]2(C)C(=O)CC[C@@H]12", "note": "[Dehydroepiandrosterone]", "values": [{"measurement": "LEL", "setting": "Rattus norvegicus [2]; [7]", "result": 6, "unit": "mg"}, {"measurement": "LEL (mg/100 g BW)", "setting": "Rattus norvegicus [2]; [7]", "result": 0.6}, {"measurement": "LEL", "setting": "Rattus norvegicus [2]; uterotrophic, duration: 21 days, Active", "result": 1, "unit": "mg/day"}, {"measurement": "LEL", "setting": "Rattus norvegicus [2]; uterotrophic, duration: 28 days, oral, diet, Active", "result": 2000, "unit": "mg/kg-day"}, {"measurement": "LEL", "setting": "Rattus norvegicus [2]; [8]", "result": 30, "unit": "mg/kg-day"}]}
{"smiles": "CCCCCOC(=O)c1ccccc1C(=O)OCCCCC", "note": "[Dipentyl phthalate]", "values": [{"measurement": "LOEL", "setting": "Rattus norvegicus [2]; [15]", "result": 1000, "unit": "mg/kg-day"}, {"measurement": "NOEL", "setting": "Rattus norvegicus [2]; [15]", "result": 200, "unit": "mg/kg-day"}, {"measurement": "NOEL", "setting": "Rattus norvegicus [4]; developmental, oral, gavage, M, Sprague-Dawley, generation: F1, F1: Testosterone (Testes) production", "result": 50, "unit": "mg/kg-day"}]}
